Measurements from ChEMBL document CHEMBL1155928, “Synthesis and structure-activity relationships of berberine analogues as a novel class of low-density-lipoprotein receptor up-regulators” (2008).

System: HepG2
Assay: Upregulation of LDLR mRNA expression in human HepG2 cells after 8 hrs by RT-PCR relative to control
Format: functional

Row | SMILES | Activity
1 | CCCOc1cc2c[n+]3c(cc2cc1OC)-c1cc2c(cc1CC3)OCO2.[Cl-] | 1.94
2 | CCCOc1ccc2cc3[n+](cc2c1OCCC)CCc1cc2c(cc1-3)OCO2.[Cl-] | 2.21
3 | COc1ccc2cc3[n+](cc2c1)CCc1cc2c(cc1-3)OCO2.[Cl-] | 2
4 | CCCOc1ccc2cc3[n+](cc2c1)CCc1cc2c(cc1-3)OCO2.[Cl-] | 2.13
5 | COc1ccc2cc3[n+](cc2c1OC)CCc1cc2c(cc1-3)OCO2.[Cl-] [BERBERINE CHLORIDE] | 5.3
6 | CCCOc1cc2cc3[n+](cc2cc1OC)CCc1cc2c(cc1-3)OCO2.[Cl-] | 2.35
7 | COc1cc2c[n+]3c(cc2cc1O)-c1cc2c(cc1CC3)OCO2.[Cl-] | 2.2
8 | COc1cc2cc3[n+](cc2c(OC)c1OC)CCc1cc2c(cc1-3)OCO2.[Cl-] | 3.16
9 | CCOc1cc2c[n+]3c(cc2cc1O)-c1cc2c(cc1CC3)OCO2.[Cl-] | 1.8
10 | [Cl-].c1ccc2c[n+]3c(cc2c1)-c1cc2c(cc1CC3)OCO2 | 2.95
11 | CCCOc1ccc2cc3[n+](cc2c1OC)CCc1cc2c(cc1-3)OCO2.[Cl-] | 2.3
12 | COc1cc2c[n+]3c(cc2c(OC)c1OC)-c1cc2c(cc1CC3)OCO2.[Cl-] | 3.01
13 | CCOc1ccc2cc3[n+](cc2c1OC)CCc1cc2c(cc1-3)OCO2.[Cl-] | 2.35
14 | COc1cc2cc3[n+](cc2cc1OC)CCc1cc2c(cc1-3)OCO2.[Cl-] [PSEUDOBERBERINE] | 8.5
15 | Oc1ccc2cc3[n+](cc2c1)CCc1cc2c(cc1-3)OCO2.[Cl-] | 5.16
16 | CCOc1cc2c[n+]3c(cc2cc1OC)-c1cc2c(cc1CC3)OCO2.[Cl-] | 2.17
17 | COc1cc2cc3[n+](cc2cc1O)CCc1cc2c(cc1-3)OCO2.[Cl-] | 1.6
18 | CCOc1cc2cc3[n+](cc2cc1OC)CCc1cc2c(cc1-3)OCO2.[Cl-] | 2.1
19 | CCOc1ccc2cc3[n+](cc2c1)CCc1cc2c(cc1-3)OCO2.[Cl-] | 2.9
20 | CCOc1ccc2cc3[n+](cc2c1OCC)CCc1cc2c(cc1-3)OCO2.[Cl-] | 2.13
